These results are taken from patent US20250304630A1, “POLYPEPTIDES HAVING OSMOPROTECTIVE ACTIVITY, COMPOSITIONS THEREOF AND USES THEREOF” (DELAVIE SCIENCES, LLC, priority 2022, published 2025).

A short description of data set [1]: HORAC assay (OxiSelect HORAC Assay), loss of FITC fluorescence. Type of data set: biochemical. How it is done:
(§1) This assay procedure was used to screen materials for antioxidant properties using non-cell-based methods. Dilutions of HSP tested were 10%, 5%, 1%, 0.5%, 0.1%, 0.05%, and 0.01%.
(§2) Fluorescein (FITC) is normally a highly fluorescent molecule, yet when fluorescein is oxidized by either peroxyl radicals or hydroxyl radicals, it loses its fluorescence. Thus, when FITC is incubated in the presence of 2,2′-azobis(2-amidino-propane) dihydrochloride (AAPH, a peroxyl radical generating compound), or a combination of hydrogen peroxide and cobalt (a hydroxyl radical generating system based on the Fenton-type reaction), there will be a time dependent loss of FITC fluorescence. However, if a material with antioxidant properties is present during the incubation, the loss of fluorescence will be delayed as some of the peroxyl or hydroxyl radicals react with the antioxidant material instead of the FITC. Under these conditions, the delay or prevention in fluorescence decay will be in proportion to the antioxidant capacity of the test material.
The HORAC assay was performed as specified by the manufacturer of the kit. For the assay, the test materials were prepared in Assay Buffer at 10× their final desired concentrations. Caffeic acid was used as the positive control for this assay. To start the assay, 20 μl of the test material or positive control were added to the wells of a 96-well plate. All of the samples were prepared in triplicate. Next, 140 μl of an FITC solution was added to each well and the plate was incubated for 30 minutes in the dark. After this incubation, 20 μl of a hydrogen peroxide solution (Hydroxyl Radical Initiator) was added to each well, followed by the addition of 20 μl of a cobalt solution (Fenton Reagent). The plate was mixed and then read using a Fluoroskan Ascent Fluorometer at 3-minute intervals for 60 minutes with an excitation wavelength of 480 nm and an emission wavelength of 518 nm.
(§3) The loss of FITC fluorescence can be graphed by plotting fluorescence intensity vs time for each of the samples to generate a fluorescence decay curve. The area under this curve (AUC) then represents the extent of FITC fluorescence loss over the course of the assay, and this measurement is then used as an index for the effectiveness of the antioxidant samples. The AUC for a sample can be calculated using the following equation: […]
(§4) Where RFUO is the initial fluorescence measurement of the sample at time 0, with each subsequent RFU measurement indicated by the respective increased numbers. The AUC measurements were then used to determine the percent inhibition for each concentration of the test material screened, followed by the determination of the IC50, the concentration of the material at which 50% of the FITC signal loss due to radical interaction is prevented.

The nature of data set [2]: ORAC assay, loss of FITC fluorescence with AAPH. It is filed as biochemical. As for the experimental part: as §1, §2
For the ORAC assay, the test materials were prepared in Assay Buffer at 10× their final desired concentrations. Trolox was used as the positive control for this assay. To start the assay, 20 μl of the test material or positive control were added to the wells of a 96-well plate. All of the samples were prepared in triplicate. Next, 160 μl of a 360 nM FITC solution was added to each well and the plate was incubated for 30 minutes in the dark. After this incubation, 20 μl of a 153 mM AAPH (peroxyl radical generator) was added to each well. The plate was mixed and then read using a Fluoroskan Ascent Fluorometer at 2.5-minute intervals for 60 minutes with an excitation wavelength of 480 nm and an emission wavelength of 518 nm.
as §3, §4

In data set [3] the test system is human keratinocytes. Nature of the data set: Osmotic stress assay: keratinocytes pretreated, exposed to hypertonic NaCl media, viability by MTT. The conditions noted are these: for Cell Viability: MTT, % of untreated 0 mM NaCl control, mean +/- SD. It is filed as cell-based. How it is done: (§5) This assay procedure was used to screen the recombinantly produced HSP for its ability to protect against osmotic stress, using cultured human keratinocytes as the testing model. The assay used changes in cell viability as the endpoint for measuring the protective effect.
(§6) For this study, human keratinocytes were pretreated for 24 hours with either HSP, a mild hypertonic solution of sorbitol (positive control), or left untreated (negative control). After the pretreatment, the cell culture media was replaced with media supplemented with NaCl at progressively increasing hypertonic concentrations. The cells were then incubated again for 24 hours. After the second incubation, cell viability was determined using an MTT assay.
(§7) The MTT assay is a colorimetric analysis of the metabolic activity of the cell, which is a reflection of cell viability. Viable cells can take up MTT, which is then reduced by mitochondria, resulting in the formation of insoluble purple formazin crystals. These crystals are then extracted from the cells with isopropanol and quantified spectrophotometrically. The intensity of the purple color is directly proportional to the number of viable cells.
(§8) Human adult epidermal keratinocytes were grown using EpiLife Media (60 µM calcium) supplemented with 0.2% v/v bovine pituitary extract, 1 μg/ml recombinant human insulin-like growth factor-1, 0.18 μg/ml hydrocortisone, 5 μg/ml bovine transferrin, 0.2 ng/ml human epidermal growth factor. When a sufficient number of cells had been grown, they were transferred to 96-well plates and cultured for a minimum of 24 hours to allow the cells to adhere to the well plates. The cells were then used when they were fully confluent.
(§9) The test materials and the sorbitol positive controls were prepared in fully supplemented EpiLife media. Supplemented EpiLife media alone served as the untreated control. These solutions were applied to the keratinocytes in the 96-well plates, after which the plates were incubated for 24 hours at 37±2° C. and 5±1% CO2.
(§10) After the pretreatment incubation, the cell culture media was removed from both of the 96-well plates and replaced with supplemented EpiLife media which had progressively increasing concentrations of additional NaCl added (0, 75, 100, 125 and 150 mM) to generate a series of increasingly hypertonic solutions. After the addition of the media/NaCl, the 96-well plates were incubated for an additional 24 hours.
(§11) After the second 24-hour incubation, the cell culture media was removed and the cells were washed once with phosphate buffered saline. After washing, 100 μl of keratinocyte cell culture media supplemented with MTT (0.5 mg/ml) was added to each well. The 96-well plates were returned to the incubator (37+2° C. and 5+1% CO2) for one hour. After the incubation the MTT solution was removed via aspiration and the cells were rinsed twice with phosphate buffered saline to remove any residual MTT on the outside of the cells and then 100 μl of isopropyl alcohol was added to the wells to extract the purple formazin crystals. The well plates were then read at 540 nm using isopropyl alcohol as a blank.
(§12) The mean MTT absorbance value for the untreated control cells not exposed to any osmotic stress (0 mM NaCl) was calculated and used to represent 100% cell viability. The individual MTT values from the cells undergoing the various treatments were then divided by the mean value for the negative control cells and expressed as a percentage to determine the change in cell viability caused by each treatment.

Assay in data set [4]: as above
Type of data set: cell-based, human. The conditions noted are these: human, human adult epidermal keratinocytes, then 24 h with 0 mM added NaCl, MTT, % of untreated 0 mM NaCl control, mean +/- SD, read-out: Cell Viability. As for the experimental part:
as §5, §6, §7, §8, §9, §10, §11, §12

The mark [5] stands for this setting: concentration at which 50% of the FITC signal loss is prevented.

The term viability denotes a read-out of living cells in per cent, often relative to untreated cells.

Marks after values point to notes of the source that are not given here.

Take `O=C(O)/C=C/c1ccc(O)c(O)c1` [Caffeic Acid, Caffeic acid, reference compound]: the “Percent Inhibition” value is 8.85% in data set [1] (concentration 0.625 ug/ml); 14.56% in data set [1] (concentration 1.25 ug/ml); 56.30% in data set [1] (concentration 2.5 ug/ml); 68.86% in data set [1] (concentration 5 ug/ml); 60.03% in data set [1] (concentration 10 ug/ml); 62.58% in data set [1] (concentration 20 ug/ml). The IC50 result in data set [1] (setting [5]) was “IC50: 3.25 ug/ml”.
As to `Cc1c(C)c2c(c(C)c1O)CCC(C)(C(=O)O)O2` (stereo not shown) [Trolox, reference compound], the “Percent Inhibition” value stood at 30.79% in data set [2] (concentration 0.078125 ug/ml); 47.09% in data set [2] (concentration 0.15625 ug/ml); 68.77% in data set [2] (concentration 0.3125 ug/ml); 83.84% in data set [2] (concentration 0.625 ug/ml); 84.06% in data set [2] (concentration 1.25 ug/ml); 87.4% in data set [2] (concentration 2.5 ug/ml). In addition, in data set [2] (concentration 5 ug/ml), the “Percent Inhibition” value came out at 90.3%. Further, the IC50 result in data set [2] (setting [5]) is listed as “IC50: 0.42 ug/ml”.
For `OC[C@@H](O)[C@@H](O)[C@H](O)[C@@H](O)CO` [Sorbitol, sorbitol, reference compound], the “Cell Viability” value is 103.2 +/− 1.8% in data set [3] (24 h pretreatment with 12.5 mM Sorbitol, then 24 h with 75 mM added NaCl); 98.3 +/− 6.0* % in data set [3] (24 h pretreatment with 12.5 mM Sorbitol, then 24 h with 100 mM added NaCl); 73.2 +/− 13.3* % in data set [3] (24 h pretreatment with 12.5 mM Sorbitol, then 24 h with 125 mM added NaCl); 24.1 +/− 9.6% in data set [3] (24 h pretreatment with 12.5 mM Sorbitol, then 24 h with 150 mM added NaCl); 100.0 +/− 7.7% in data set [3] (24 h pretreatment with 25 mM Sorbitol, then 24 h with 75 mM added NaCl); 93.9 +/− 2.8* % in data set [3] (24 h pretreatment with 25 mM Sorbitol, then 24 h with 100 mM added NaCl). Besides, the “Cell Viability” value in data set [3] (24 h pretreatment with 25 mM Sorbitol, then 24 h with 125 mM added NaCl) is reported as 69.5 +/− 9.7* %; in data set [3] (24 h pretreatment with 25 mM Sorbitol, then 24 h with 150 mM added NaCl) it was 29.5 +/− 5.6%. Further, the “cell viability versus untreated cell samples” value in data set [3] (at both 100 mM and 125 mM NaCl) is recorded as “significantly greater than the untreated cell samples”. For the same compound, the osmoprotective effect entry in data set [3] (highest concentration of added NaCl (150 mM)) was “neither HSP nor sorbitol (positive control) showed a significant osmoprotective effect”. The “effect on the reduction in cell viability caused by the increase in hypertonicity” value in data set [3] (increasing added NaCl, overall statement) is recorded as “slow the reduction in cell viability”. Also, in data set [4] (24 h pretreatment with 12.5 mM Sorbitol), the viability at 24 h, 12.5 mM worked out at 101%. The viability at 24 h, 25 mM in data set [4] (24 h pretreatment with 25 mM Sorbitol) worked out at 122%.
